Assay results: PMC3643815 (Combinatorial chemistry & high throughput screening, 2011)
Counter-ions that a name gives are not always drawn. Like-named read-outs stand apart in the source and are kept apart here.

How the values were obtained:
[1] = Solubility by laser nephelometry; settings: dilutions up to 77 μM
[2] = biological target: T1, human Cdc7-Dbf4 kinase (Cdc7-Dbf4 heterodimer) (Homo sapiens, UniProt O00311); assay: Cdc7-Dbf4 kinase assay with the SPA method; format: biochemical; settings: 45 mM EDTA in 1% DMSO, 25 μM [γ-33P]-ATP
[3] = biological target: T1, human Cdc7-Dbf4 kinase (Cdc7-Dbf4 heterodimer); assay: Cdc7-Dbf4 kinase assay with the LUM method; format: biochemical; settings: for ADP production IC50: LUM method, 12.5 μM ATP, up to 77 μM compound, duplicate, N.E. = no effect
[4] = system: luminescence detection (luciferase luminescence signal); assay: Dose response in the luminescence detection step of the LUM method
[5] = system: ADP processing (ATP depletion, ATP regeneration, luciferase reaction); assay: Dose response in the ADP processing step of the LUM method; format: biochemical

T1 sequence (O00311 whole entry): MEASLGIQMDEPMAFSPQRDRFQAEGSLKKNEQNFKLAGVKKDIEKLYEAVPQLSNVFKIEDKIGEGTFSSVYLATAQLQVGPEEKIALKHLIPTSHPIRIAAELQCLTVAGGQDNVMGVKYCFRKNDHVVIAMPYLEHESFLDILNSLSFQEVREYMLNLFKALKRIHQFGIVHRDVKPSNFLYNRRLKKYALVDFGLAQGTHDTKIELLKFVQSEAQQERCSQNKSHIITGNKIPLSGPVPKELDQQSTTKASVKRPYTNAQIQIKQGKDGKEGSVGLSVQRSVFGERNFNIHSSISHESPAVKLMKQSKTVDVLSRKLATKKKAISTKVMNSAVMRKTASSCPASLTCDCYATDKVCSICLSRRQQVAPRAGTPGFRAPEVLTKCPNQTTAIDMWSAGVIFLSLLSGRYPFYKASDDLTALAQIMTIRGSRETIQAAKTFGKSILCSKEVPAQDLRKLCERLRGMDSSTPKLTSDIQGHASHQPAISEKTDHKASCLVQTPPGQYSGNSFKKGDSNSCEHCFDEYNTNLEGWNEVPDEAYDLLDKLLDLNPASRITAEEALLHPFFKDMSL
T1 sequence (Q9UBU7 whole entry partner): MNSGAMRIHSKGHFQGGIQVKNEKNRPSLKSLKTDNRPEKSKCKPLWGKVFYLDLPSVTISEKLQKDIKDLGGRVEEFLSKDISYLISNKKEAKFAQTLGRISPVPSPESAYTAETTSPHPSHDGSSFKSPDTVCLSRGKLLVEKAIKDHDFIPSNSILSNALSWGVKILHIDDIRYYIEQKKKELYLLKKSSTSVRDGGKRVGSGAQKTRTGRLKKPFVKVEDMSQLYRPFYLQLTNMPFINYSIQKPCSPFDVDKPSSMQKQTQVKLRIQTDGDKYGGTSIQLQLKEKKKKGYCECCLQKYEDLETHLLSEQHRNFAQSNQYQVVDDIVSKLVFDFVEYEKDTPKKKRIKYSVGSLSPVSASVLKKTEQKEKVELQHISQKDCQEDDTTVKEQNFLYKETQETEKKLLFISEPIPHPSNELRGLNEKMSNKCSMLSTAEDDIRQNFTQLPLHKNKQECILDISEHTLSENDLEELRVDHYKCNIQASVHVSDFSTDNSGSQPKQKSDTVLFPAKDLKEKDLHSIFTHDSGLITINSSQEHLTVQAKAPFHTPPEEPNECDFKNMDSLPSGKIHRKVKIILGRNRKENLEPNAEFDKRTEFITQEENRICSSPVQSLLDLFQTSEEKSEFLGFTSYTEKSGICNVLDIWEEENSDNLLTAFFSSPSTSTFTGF

Row | Molecule | Solubility [1] | ADP production IC50 [3] | other results
1 | O=C(O)/C=C/c1ccc(O)c(O)c1 [Caffeic acid] | Soluble | – | –
2 | O=C(O)CN(CCN(CC(=O)O)CC(=O)O)CC(=O)O [EDTA] | – | – | inhibition of Cdc7-Dbf4 kinase activity (control selection) [2]: inhibited the Cdc7-Dbf4 kinase activity
3 | O=c1oc2c(O)c(O)cc3c(=O)oc4c(O)c(O)cc1c4c23 [Ellagic acid] | Soluble | – | –
4 | CCOC(=O)[C@H](CCc1ccccc1)N[C@@H](C)C(=O)N1CCC[C@H]1C(=O)O [Enalapril maleate, reference compound] | Soluble | N.E. ^1 | –
5 | O=c1c(O)c(-c2ccc(O)c(O)c2)oc2cc(O)ccc12 [Fisetin] | Soluble | N.E. | –
6 | CN(C)c1ccc(C(=C2C=CC(=[N+](C)C)C=C2)c2ccc(N(C)C)cc2)cc1 [Gentian violet, reference compound] | Soluble | – | inhibition at 10 µM ([3]; read-out: averaged percent inhibition (two data sets)): 23%; inhibition at 10 µM ([3]; read-out: percent inhibition, Set 1): 23%; inhibition at 10 µM ([3]; read-out: percent inhibition, Set 2): 23%
7 | O=C1C=C2CC3(O)COc4c(ccc(O)c4O)C3=C2C=C1O (stereo not drawn) [Hematein] | Soluble | – | –
8 | O=C(CCCCC(=O)Nc1c(I)cc(I)c(C(=O)O)c1I)Nc1c(I)cc(I)c(C(=O)O)c1I [Iodipamide, reference compound] | Soluble | N.E. | –
9 | O=c1c(O)c(-c2cc(O)c(O)c(O)c2)oc2cc(O)cc(O)c12 [Myricetin] | Soluble | – | –
10 | N=C1C=CC(=C(c2ccc(N)cc2)c2ccc(N)cc2)C=C1 [Pararosaniline pamoate, reference compound] | Soluble | – | –
11 | O=c1c(O)cccc2cc(O)c(O)c(O)c12 [Purpurogallin] | Soluble | N.E. ^1 | –
12 | O=c1c(O)c(-c2ccc(O)c(O)c2)oc2cc(O)cc(O)c12 [Quercetin] | Soluble | – | –
13 | O=C(O[C@@H]1Cc2c(O)cc(O)cc2O[C@@H]1c1cc(O)c(=O)c2c(O)c(O)cc([C@H]3Oc4cc(O)cc(O)c4C[C@H]3O)c2c1)c1cc(O)c(O)c(O)c1 [Theaflavin monogallates] | Soluble | – | –

Second part, led by results:

Row | Solubility [1] | ADP production IC50 [3] | Molecule | other results
14 | Soluble | – | O=C(O[C@@H]1Cc2c(O)cc(O)cc2O[C@@H]1c1cc(O)c(O)c(O)c1)c1cc(O)c(O)c(O)c1 [Epigallocatechin-3-monogallate] | –
15 | Soluble | N.E. | O=c1cc(-c2cc(O)c(O)c(O)c2)oc2cc(O)cc(O)c12 [Hieracin] | –
16 | Soluble | – | O=c1c(-c2cc(O)c(O)c(O)c2)coc2cc(O)c(O)c(O)c12 [Irigenol] | –
17 | Soluble | – | CC(=O)Oc1cc(-c2coc3cc(OC(C)=O)c(OC(C)=O)c(OC(C)=O)c3c2=O)cc(OC(C)=O)c1OC(C)=O [Iriginol hexaaceatate] | –
18 | Soluble | N.E. | Pyrogallin | –
19 | Soluble | – | Tannic acid | concentration at which compound inhibits luminescence detection [4]: 10 µM; concentration at which ATP depletion is inhibited [5]: higher than 0.2 μM; percent inhibition, Set 1 ([3]; LUM method pilot screen, 10 μM compound in 1% DMSO, Set 1 of duplicate): 46%; percent inhibition, Set 2 ([3]; LUM method pilot screen, 10 μM compound in 1% DMSO, Set 2 of duplicate): 52%; averaged percent inhibition (two data sets) ([3]; LUM method pilot screen, 10 μM compound, average of duplicate): 49%
